Here are results for three compounds from ChEMBL document CHEMBL4373690, “Photoactivatable Prolyl Hydroxylase 2 Inhibitors for Stabilizing the Hypoxia-Inducible Factor with Light” (J Med Chem, 2019).

The nature of data set [1]: Drug metabolism in pH 7.4 PBS assessed as light-mediated formation of N-(5-(1-(2-(4-chlorophenoxy)ethyl)-1H-1,2,3-triazol-4-yl)-3-hydroxypicolinoyl)glycine at 50 uM followed by laser irradiation for 120 mins by HPLC analysis.
In data set [2] the target is Egl nine homolog 1 (Homo sapiens) (UniProt Q9GZT9). In words: Photoactivated inhibition of PHD2 (181 to 426 residues) (unknown origin) at 1.23 uM using FITC-HIF1alpha (556 to 574 residues) as substrate incubated for 60 mins using laser irradiated compound at 405 nm light by fluorescence polarization assay.
Sequence of Egl nine homolog 1 (Homo sapiens) (Q9GZT9 2-426 limits assumed): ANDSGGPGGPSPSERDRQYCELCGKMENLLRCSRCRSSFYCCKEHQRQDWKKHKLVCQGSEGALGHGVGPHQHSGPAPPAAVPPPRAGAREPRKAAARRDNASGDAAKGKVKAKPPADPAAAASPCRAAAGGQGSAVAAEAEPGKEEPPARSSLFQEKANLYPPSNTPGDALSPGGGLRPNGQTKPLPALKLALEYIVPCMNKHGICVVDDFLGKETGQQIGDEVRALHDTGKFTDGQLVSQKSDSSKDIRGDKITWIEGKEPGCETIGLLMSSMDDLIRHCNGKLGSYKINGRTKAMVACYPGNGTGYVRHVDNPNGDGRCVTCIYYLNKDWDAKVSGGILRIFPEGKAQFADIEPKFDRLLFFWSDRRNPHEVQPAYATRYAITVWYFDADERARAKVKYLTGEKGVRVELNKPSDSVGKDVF
A further data set relates to HUVEC. In words: Cytotoxicity against HUVEC cells at 100 uM after 72 hrs by MTT assay. It counts as cell-based. The conditions noted are these: human.
In a further data set the test system is Hep 3B2. In words: Cytotoxicity against human Hep3B cells at 100 uM after 72 hrs by MTT assay. It counts as cell-based. The conditions noted are these: hep 3b2, 72 h.
The test system of a further data set is HEK293. Briefly: Cytotoxicity against HEK293 cells at 100 uM after 72 hrs by MTT assay. It counts as cell-based. The conditions noted are these: human, hek293, 72 h.
For another data set, the system named is L02. In words: Cytotoxicity against human L02 cells at 100 uM after 72 hrs by MTT assay. Type of data set: cell-based. The conditions noted are these: l02, 72 h.
Data set [3] is described as follows: Drug metabolism in pH 7.4 PBS assessed as light-mediated formation of N-(5-(1-(2-(4-chlorophenoxy)ethyl)-1H-1,2,3-triazol-4-yl)-3-hydroxypicolinoyl)glycine at 50 uM followed by laser irradiation by HPLC analysis.
Data set [4] addresses Egl nine homolog 1 (Homo sapiens) (UniProt Q9GZT9). Briefly: Photoactivated inhibition of PHD2 (181 to 426 residues) (unknown origin) at 1.23 uM using FITC-HIF1alpha (556 to 574 residues) as substrate incubated for 60 mins using laser irradiated compound at 405 nm light for 20 mins by fluorescence polarization assay relative to control.
Data set [5] in a line: Drug metabolism in pH 7.4 PBS assessed as light-mediated formation of N-(5-(1-(2-(4-chlorophenoxy)ethyl)-1H-1,2,3-triazol-4-yl)-3-hydroxypicolinoyl)glycine at 50 uM followed by laser irradiation for 5 mins by HPLC analysis.
Data set [6] is described as follows: Drug metabolism in pH 7.4 PBS assessed as light-mediated formation of N-(5-(1-(2-(4-chlorophenoxy)ethyl)-1H-1,2,3-triazol-4-yl)-3-hydroxypicolinoyl)glycine at 50 uM followed by laser irradiation for 30 secs to 20 mins by UV-Visible spectroscopy.
A short description of data set [7]: Drug metabolism in pH 7.4 PBS assessed as light-mediated formation of N-(5-(1-(2-(4-chlorophenoxy)ethyl)-1H-1,2,3-triazol-4-yl)-3-hydroxypicolinoyl)glycine at 50 uM followed by laser irradiation for 20 mins by HPLC analysis.
Data set [8] can be described thus: Drug metabolism in pH 7.4 PBS assessed as light-mediated formation of 7-(diethylamino)-4-(hydroxymethyl)-2H-chromen-2-one at 50 uM followed by laser irradiation by HPLC analysis.
A short description of data set [9]: Chemical stability in pH 7.4 PBS buffer at 50 uM measured over 24 hrs by HPLC analysis. Type of data set: physicochemical. The conditions noted are these: pH 7.4, 24 h.
Data set [10] deals with Egl nine homolog 1 (Homo sapiens) (UniProt Q9GZT9). Briefly: Photoactivated inhibition of PHD2 in human Hep3B cells assessed as stabilization of HIFalpha by measuring upregulation of EPO gene expression at 50 uM in presence of light irradiation for >20 mins by qRT-PCR analysis. Type of data set: cell-based.
Data set [11] in a line: Drug metabolism in pH 7.4 PBS assessed as light-mediated formation of N-(5-(1-(2-(4-chlorophenoxy)ethyl)-1H-1,2,3-triazol-4-yl)-3-hydroxypicolinoyl)glycine at 50 uM followed by laser irradiation for 15 mins by HPLC analysis.
The target of data set [12] is Egl nine homolog 1 (Homo sapiens) (UniProt Q9GZT9). Briefly: Photoactivated inhibition of PHD2 in human Hep3B cells assessed as increase in HIF-2alpha level in nucleus in presence of light irradiation for 20 mins measured after 10 hrs by Western blot analysis. It counts as cell-based.
Data set [13] is described as follows: Stability in human plasma assessed as compound remaining at […] measured at 8 hrs by HPLC analysis. The conditions noted are these: read-out: Stability. Type of data set: ADME, cell-free.
Data set [14] can be described thus: Drug metabolism in pH 7.4 PBS assessed as light-mediated formation of N-(5-(1-(2-(4-chlorophenoxy)ethyl)-1H-1,2,3-triazol-4-yl)-3-hydroxypicolinoyl)glycine at 50 uM followed by laser irradiation for 9 mins by HPLC analysis.
Data set [15] addresses Egl nine homolog 1 (Homo sapiens) (UniProt Q9GZT9). In words: Photoactivated inhibition of PHD2 in human Hep3B cells assessed as increase in HIF-1alpha level in nucleus in presence of light irradiation for 20 mins measured after 10 hrs by Western blot analysis. Type of data set: cell-based.
Data set [16] shares this target. Briefly: Photoactivated inhibition of PHD2 in HEK293 cells harboring firefly luciferase gene and renilla luciferase gene assessed as spatiotemporal dependent accumulation of hypoxia response element level at 100 uM using […] under laser light irradiation after 24 hrs by chemiluminescence assay. Type of data set: cell-based.
For data set [17] the target is unchanged. In words: Photoactivated inhibition of PHD2 in human Hep3B cells assessed as stabilization of HIFalpha by measuring upregulation of EPO gene expression at 50 uM in presence of light irradiation for 1 to 30 mins by qRT-PCR analysis. Type of data set: cell-based.
Data set [18] shares this target. In words: Photoactivated inhibition of PHD2 (181 to 426 residues) (unknown origin) at 1.23 uM using FITC-HIF1alpha (556 to 574 residues) as substrate incubated for 60 mins using laser irradiated compound at 405 nm light for >20 mins by fluorescence polarization assay.
Data set [19] can be described thus: Stability in rat plasma assessed as compound remaining at […] measured at 8 hrs by HPLC analysis. It counts as ADME, cell-free. The conditions noted are these: read-out: Stability.
Data set [20] in a line: Drug metabolism in pH 7.4 PBS assessed as light-mediated formation of N-(5-(1-(2-(4-chlorophenoxy)ethyl)-1H-1,2,3-triazol-4-yl)-3-hydroxypicolinoyl)glycine at 50 uM followed by laser irradiation for 2 mins by HPLC analysis.
Data set [21] concerns the target Egl nine homolog 1 (Homo sapiens) (UniProt Q9GZT9). In words: Photoactivated inhibition of PHD2 in human Hep3B cells assessed as increase in HIF-1alpha level in presence of light irradiation for 1 to 20 mins measured after 10 hrs by Western blot analysis. It counts as cell-based.
The target is the same in data set [22]. Briefly: Photoactivated inhibition of PHD2 (181 to 426 residues) (unknown origin) using FITC-HIF1alpha (556 to 574 residues) as substrate incubated for 60 mins using laser irradiated compound at 405 nm light for 30 secs to 30 mins by fluorescence polarization assay.
A short description of data set [23]: Drug metabolism in pH 7.4 PBS assessed as light-mediated formation of N-(5-(1-(2-(4-chlorophenoxy)ethyl)-1H-1,2,3-triazol-4-yl)-3-hydroxypicolinoyl)glycine at 50 uM followed by laser irradiation for 30 secs by HPLC analysis.
The target in data set [24] is Egl nine homolog 1 (Homo sapiens) (UniProt Q9GZT9). In words: Photoactivated inhibition of PHD2 in HEK293 cells harboring firefly luciferase gene and renilla luciferase gene assessed as stabilization of HIF-alpha at 100 uM using […] under light irradiation for 1 to 30 mins and measured after 24 hrs by chemiluminescence assay. Type of data set: cell-based.

Data set [25] can be described thus: Drug metabolism in pH 7.4 PBS assessed as light-mediated formation of 7-(diethylamino)-4-(hydroxymethyl)-2H-chromen-2-one at 50 uM followed by laser irradiation by UV-Visible spectroscopy.
The target of data set [26] is Egl nine homolog 1 (Homo sapiens) (UniProt Q9GZT9). In words: Photoactivated inhibition of PHD2 in human Hep3B cells assessed as increase in HIF-2alpha level in presence of light irradiation for 1 to 20 mins measured after 10 hrs by Western blot analysis. It counts as cell-based.
The nature of data set [27]: Drug metabolism in pH 7.4 PBS assessed as light-mediated formation of N-(5-(1-(2-(4-chlorophenoxy)ethyl)-1H-1,2,3-triazol-4-yl)-3-hydroxypicolinoyl)glycine at 50 uM followed by laser irradiation by UV-Visible spectroscopy.

Activity calls are given as the source filed them. The calls are words filed in the database; no cut-off is given here.

Take `CCN(CC)c1ccc2c(COc3cc(-c4cn(CCOc5ccc(Cl)cc5)nn4)cnc3C(=O)NCC(=O)O)cc(=O)oc2c1`: the Drug metabolism entry in data set [1] was “Metabolite not detected”. The inhibition result in [2] was “inactive”.

On to `O=C(O)CNC(=O)c1ncc(-c2cn(CCOc3ccc(Cl)cc3)nn2)cc1O`, for which the Activity entry with HUVEC, in the data set on Hep 3B2, with HEK293 and with L02 was “Non-Toxic” throughout.

For `CCN(CC)c1ccc2c(COC(=O)CNC(=O)c3ncc(-c4cn(CCOc5ccc(Cl)cc5)nn4)cc3O)cc(=O)oc2c1`, the Drug metabolism result was “Metabolite detected” in data set [3]; 49% in data set [5]; “Metabolite detected” in [6]; 100% in [7]; “Metabolite detected” in [8]; 82% in data set [11]. Besides, the Drug metabolism was 68% in [14]; 16% in data set [20]; 5% in [23]; “Metabolite detected” in data set [25]; “Metabolite detected” in data set [27]. Also, the Activity result with HUVEC, in the data set with Hep 3B2, in the data set on HEK293 and in the data set with L02 was “Non-Toxic” each time. In addition, the inhibition in data set [4] came out at 95.2%. For the same compound, the Stability result in data set [9] is listed as “Stable”. Also, the inhibition result in data set [10], in data set [12], in data set [15], in [16], in [17] and in data set [18] was “Active” in each case. Also, the inhibition result in data set [21], in data set [22], in data set [24] and in [26] was “Active” throughout. For the same compound, the remaining at 8 h in data set [13] and in [19] was above 90% throughout.
